Test results published in US9233978B2, “6-fused heteroaryldihydropyrimidines for the treatment and prophylaxis of hepatitis B virus infection” (Hoffmann-La Roche Inc., priority 2014, dated 2016).
≈ marks a conversion by molar mass, not a printed value. Read-outs that look alike come from different tables or passages of the source.

Columns and labels:
[1] = tested on: HBV; test: Anti-HBV activity in vitro, HepG2.2.15 cells, extracellular HBV DNA by qPCR; type: cell-based; settings: Hepatitis B virus, HepG2.2.15, 120 h
Procedure, shortened: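 Extracellular HBV DNA in culture supernatant was measured by qPCR after nucleic acid extraction. The supernatant came from constitutively replicating HepG2.2.15 cells exposed for five days to half-log-diluted compounds, with DMSO at 0.5% final. Cells had been plated overnight at 37 °C beforehand.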

[2] = Cytotoxicity in HepDE19 cells (CCK-8) and selectivity index; type: cell-based; settings: human, HepDE19 cells; CCK-8 cell viability; five days after treatment
Procedure, shortened: (§1)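 HepDE19 cells (DMEM-F12, 10% FBS) were treated with compound for five days, then given CCK-8 for 2 h at 37 °C and read at OD450 and OD630. CC50 is the concentration killing 50% of host cells. Selectivity index is CC50/EC50.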

[3] = tested on: HepDE19 cells; test: as above; type: cell-based; settings: CC50 (HepDE19) value / EC50 (HepG2.2.15) value
Procedure, shortened: as §1

[4] = Human microsomal metabolic stability; type: in vitro ADME; settings: human microsomes 0.5 mg/mL, 1 μM test compound, NADPH, 37° C., pH 7.4, 0-30 minutes
Procedure, shortened: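 1 μM compound with 0.5 mg/mL human liver microsomal protein in 100 mM phosphate pH 7.4 at 37° C, started with 1 mM NADPH or a NADPH-regenerating system. Sampled at 0–30 min, quenched in cold methanol with tolbutamide internal standard; remaining parent quantified by LC-MS/MS.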

[5] = Lysa solubility; type: physicochemical; settings: phosphate buffer, pH 6.5, aqueous buffer, thermodynamic from solid, 0.05 M phosphate buffer (pH 6.5)
Procedure, shortened: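 Duplicate samples dried from 10 mM DMSO stocks, taken up in 0.05 M phosphate buffer pH 6.5, stirred 1 h, shaken 2 h and left overnight. Filtrate and 1/10 dilution quantified by direct UV or HPLC-UV, in μg/mL; above 80% of the calculated maximum, reported as greater than that value.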

[6] = tested on: CYP3A4; test: Cytochrome P450 induction screening assay, mRNA induction in human cryopreserved hepatocytes; type: in vitro ADME; settings: CYP3A4 mRNA relative induction, 24 hours, test compound up to 10 μM
Procedure: Human cryopreserved hepatocytes (Life Technologies, Carlsbad, USA) were thawed and cultured in collagen I coated 96-well plates with a density of 52,000 cells/well. After attachment, medium was changed and cells were pre-cultured overnight in hepatocyte maintenance medium (HMM; Lonza, Switzerland).
Test compounds were dosed to the cells next morning at an indicated concentration (up to 10 μM) in HMM culture media containing gentamycin and a constant 0.1% DMSO. Similarly, dilutions of the positive inducer compounds omeprazole (prototypical inducer of human CYP1A2; final concentrations: 1 and 10 μM), phenobarbital (prototypical inducer of human CYP2B6; final concentrations: 100 and 1000 μM) and rifampicin (prototypical inducer of human CYP3A4; final concentrations: 1 and 10 μM) were prepared from 1000 fold DMSO stock solutions in HMM containing gentamycin. Medium change was then performed and cells were exposed for 24 hours to test compounds, positive inducer compounds, or vehicle (0.1% DMSO), respectively.
At the end of the compound exposure period, medium was removed and cells lysed using 100 μL/well MagNA Pure LC RNA isolation tissue lysis buffer (Roche Diagnostics AG, Rotkreuz, Switzerland). Plates were then sealed and frozen at −80° C. until further workup.
mRNA isolation was performed using the MagNA Pure 96 system (Roche Diagnostics AG, Rotkreuz, Switzerland) and the respective cellular RNA large volume kit (Roche Diagnostics AG, Rotkreuz, Switzerland) from thawed samples diluted 1:1 with PBS. The volume of the cell lysis and an elution volume of 100 μL were used. 20 μl of the resulting mRNA suspension was then used for reverse transcription using 20 μl of the transcript or first stand cDNA synthesis kit (Roche prime Supply, Mannheim, Germany). The resulting cDNA was diluted with 40 μl of H2O before using for qRT-PCR. qRT-PCR was performed by using the forward and the reverse primer, the corresponding UPL (all from Microsynth, Balgach, Switzerland) and the Taqman Fast advanced master mix (Applied Biosystems), on an ABI 7900 machine (Applied Biosystems).
qRT-PCR Ct-values for the respective P450s were put into relation to the Ct-value of RN18S1 (microsynth, Balgach, Switzerland) of the same sample. Doing so, a respective Δct-value was calculated. Using the average of all Δct-values for the vehicle control samples, a ΔΔct-value was calculated for each sample (ΔΔct-value(sample)=Δct-value(sample)−average of Δct-value of all vehicle controls). The fold induction of the respective sample was calculated as 2^(−ΔΔct). The individual fold induction values were then averaged per treatment condition (usually n=3 biological replicates).
Relative induction values to the respective positive inducer compound condition (10 μM omeprazole for CYP1A2; 1000 μM Phenobarbital for CYP2B6; 10 μM rifampicin for CYP3A4) were then calculated from the fold induction values as follows: Relative induction (%)=100×(T−V)/(P−V)

[7] = HepG2.2.15 cells, HBV replication inhibited by 50%, extracellular HBV DNA by qPCR, five days after compound treatment, read-out: EC50

| SMILES | EC50 [1, 7] | CC50 at 5 days [2] | Selectivity index (CC50/EC50) [3] | Human Microsomal Clearance [4] | solubility thermodynamic [5] | % of Positive control (10 μM Rifampicin) [6] | EC50 [1] |
| --- | --- | --- | --- | --- | --- | --- | --- |
| CCOC(=O)C1=C(CN2CCN3C(=O)N(C(C)(C)CC(=O)O)C[C@@H]3C2)NC(c2nccs2)=N[C@H]1c1cccc(F)c1Cl [Example 34, 3-[(8aS)-7-[[(4R)-4-(2-chloro-3-fluoro-phenyl)-5-ethoxycarbonyl-2-thiazol-2-yl-1,4-dihydropyrimidin-6-yl]methyl]-3-oxo-5,6,8,8a-tetrahydro-1H-imidazo[1,5-a]pyrazin-2-yl]-3-methyl-butanoic acid] | 8 nM | 81000 nM | 10655 | 1.8 mL/min/kg | 326 µg/mL (≈ 527 µM) | 0.2% |  |
| COC(=O)C1=C(CN2CCN3C(=O)N(CC(C)(C)CC(=O)O)C[C@@H]3C2)NC(c2nccs2)=N[C@H]1c1ccc(F)cc1Cl [Example 55, 4-[(8aS)-7-[[(4R)-4-(2-chloro-4-fluoro-phenyl)-5-methoxycarbonyl-2-thiazol-2-yl-1,4-dihydropyrimidin-6-yl]methyl]-3-oxo-5,6,8,8a-tetrahydro-1H-imidazo[1,5-a]pyrazin-2-yl]-3,3-dimethyl-butanoic acid] | 5 nM | > 100000 nM | >20000 |  | 470 µg/mL (≈ 759 µM) | 0.1% |  |
| CCOC(=O)C1=C(CN2CCN3C(=O)N(C4CCC(C(=O)O)C4)C[C@@H]3C2)NC(c2nccs2)=N[C@H]1c1cccc(F)c1Cl (mixture of isomers) [Example 62, (R)-6-[(S)-2-((1R,3S)-3-Carboxy-cyclopentyl)-3-oxo-hexahydro-imidazo[1,5-a]pyrazin-7-ylmethyl]-4-(2-chloro-3-fluoro-phenyl)-2-thiazol-2-yl-1,4-dihydro-pyrimidine-5-carboxylic acid ethyl ester and (R)-6-[(S)-2-((1S,3R)-3-Carboxy-cyclopentyl)-3-oxo-hexahydro-imidazo[1,5-a]pyrazin-7-ylmethyl]-4-(2-chloro-3-fluoro-phenyl)-2-thiazol-2-yl-1,4-dihydro-pyrimidine-5-carboxylic acid ethyl ester] | 6 nM | > 100000 nM | >16667 | 1.7 mL/min/kg | 374 µg/mL | 0% |  |
| CCOC(=O)C1=C(CN2CCN3C(=O)N(CC(C)(C)C(=O)O)C[C@@H]3C2)NC(c2nccs2)=N[C@H]1c1cccc(F)c1Cl [Example 19, 3-[(8aS)-7-[[(4R)-4-(2-chloro-3-fluoro-phenyl)-5-ethoxycarbonyl-2-thiazol-2-yl-1,4-dihydropyrimidin-6-yl]methyl]-3-oxo-5,6,8,8a-tetrahydro-1H-imidazo[1,5-a]pyrazin-2-yl]-2,2-dimethyl-propanoic acid] | 3 nM | > 100000 nM | >30303 | 0.4 mL/min/kg | > 727 µg/mL | 1% |  |
| CCOC(=O)C1=C(CN2CCN3C(=O)N(C(C)(C)C)C[C@@H]3[C@H]2C(=O)O)NC(c2nccs2)=N[C@H]1c1cccc(F)c1Cl (single isomer, unassigned) [Example 87B] | 1 nM | > 100000 nM | >100000 | 5.0 mL/min/kg |  | 4.0% |  |
| CCOC(=O)C1=C(CN2CCN3C(=O)N(C4CC4)C[C@@H]3[C@H]2C(=O)O)NC(c2nccs2)=N[C@H]1c1cccc(F)c1Cl (single isomer, unassigned) [Example 82B] |  | > 100000 nM | >50000 | 2.7 mL/min/kg |  | 6% | 2 nM |
